Assay results as given in US11535598B2, “Histone deacetylases (HDACs) inhibitors” (ANNJI PHARMACEUTICAL CO., LTD., priority 2017, dated 2022).

Legend:
A549 = test: Cell proliferation assay MTT, A549; conditions: read-out: Cytotoxicity IC50 Lung A549, 72 hr treated
Method: (§1) Cells were seeded in 96-well plates at a density of 5×10^3 cells per well and allowed to attach for 24 h before compound treatment. […] At end of the treatment period 72 h, 20 μl (5 mg/mL) 3-(4,5-dimethylthiazol-2-yl)-2,5-diphenyl-tetrazolium bromide (MTT) reagent was added each well. After 4 h incubation at 37° C., the supernatant was aspirated and the formazan crystals were dissolved in 100 μl of DMSO at 37° C. for 10 min with gentle agitation. The absorbance was measured at 570 nm using the Molecular Devices Microplate Reader. […] IC50 values were calculated from the relative viability values and concentrations by regression analysis.

U87MG = test: Cell proliferation assay MTT, U87MG; conditions: read-out: Cytotoxicity IC50 Glioblastoma U87MG, 72 hr treated
Method: as §1

LNCap = test: Cell proliferation assay MTT, LNCaP; conditions: read-out: Cytotoxicity IC50 Prostate LNCap, 72 hr treated
PANC1 = test: Cell proliferation assay MTT, PANC1; conditions: read-out: Cytotoxicity IC50 Pancreas PANC1, 72 hr treated
Method: as §1

HepG2 = test: Cell proliferation assay MTT, HepG2; conditions: read-out: Cytotoxicity IC50 Liver HepG2, 72 hr treated
Method: as §1

Vero = test: Cell proliferation assay MTT, Vero normal cells; conditions: read-out: Cytotoxicity IC50 Monkey normal Vero, 72 hr treated
Method: as §1

FHsWe = test: Cell proliferation assay MTT, FHsWe normal cells; conditions: read-out: Cytotoxicity IC50 Human normal FHsWe, 72 hr treated
Method: as §1

SMILES: CN1CCc2c(c3ccccc3n2Cc2ccc(C(=O)NO)cc2)C1 [Tubastatin A, reference compound]
- IC50 (A549): > 10 µM
- IC50 (U87MG): > 10 µM
- IC50 (LNCap): > 10 µM
- IC50 (PANC1): > 10 µM
- IC50 (HepG2): > 10 µM
- IC50 (Vero): 39.9 µM
- IC50 (FHsWe): 46.5 µM
